The values below come from patent US20040077616A1, “Spirocyclopropyl amides and acids and their therapeutic applications” (priority 2002, published 2004).

Assay [1] has as its system CD-1 mice. The assay is described as follows: Maximal Electroshock Procedure. The assay is classed as in vivo. The note with it: Mus musculus, po, p.o. 30 minutes prior to electrical stimulation, PROBIT analysis, read-out: ED50 (dose at which 50% of the mice were protected from tonic seizures). Here is the method:
(§1) Adult, male, CD-1 mice (22-25 grams) were obtained from Charles River Laboratories (Portage, Mich.) and housed at Abbott Laboratories (Abbott Park) under standard lighting conditions of 12 hours on/12 hours off, with lights on at 6 a.m. Food and water were provided ad libitum and mice weighed 25-35 grams at the time of testing.
(§2) Compounds were prepared for oral administration by suspending them in a vehicle of 100 μL Tween® 80 per mL hydroxypropyl methylcellulose (2 mg/mL, Abbott Laboratories). Compound solutions were administered at a volume of 10 mL/kg, p.o.
The method used was similar to that of E. A. Swinyard, General principles: Experimental selection, quantification and evaluation of anti-convulsants, Anti-epileptic Drugs, Third Edition, R. Levey, et al., Editors. 1989, Raven Press Ltd: New York. Mice were pretreated orally with compounds of the present invention 30 minutes prior to electrical stimulation. Electrical stimulation consisted of pulsed electrical current (50 mA, 0.4 second duration, pulse width 0.5 msec, 60 pulses/sec) applied via corneal electrodes to induce seizure. The stimulation was delivered with an ECT Unit (Ugo Basile #7801). […] The percent protection from tonic seizures was calculated by dividing the number of protected mice by the total number in the group. […]

Assay [2] has as its system CD-1 mice. Nature of the assay: Subcutaneous Pentylenetetrazole (PTZ) Seizure Procedure. The assay is classed as in vivo. The settings on record: Mus musculus; PTZ 85 mg/kg s.c., compound p.o. 30 minutes prior to PTZ injection, linear regression; read-out: ED50 (dose at which 50% of the mice were protected from tonic seizures). The protocol: as §1, §2
The method used was similar to that of E. A. Swinyard, General principles: Experimental selection, quantification and evaluation of anti-convulsants, Anti-epileptic Drugs, Third Edition, R. Levey, et al., Editors. 1989, Raven Press Ltd: New York. During the experiment the mice were housed individually in clear polycarbonate cages for observation. […] Seizures were induced by the subcutaneous injection of pentylenetetrazole (PTZ, 85 mg/kg) just below the nape of the neck. […] A total of 20 mice were used in each group. The ED50for the compounds were calculated using linear regression and represent the dose at which 50% of the mice were protected from tonic seizures.

Take `CCCC(CCC)C(=O)O` [Valproate]: the ED50 in the assay with CD-1 mice [1] stood at 1200 µmol/kg; with CD-1 mice [2], 1800 µmol/kg.
